Experimental data taken from ChEMBL document CHEMBL2176934 (J Med Chem, 2012).
pIC50: −log10 of the molar value.

Assays:
[1] = Inhibition of LPA-induced proliferation of HLF incubated for 1 hr prior to LPA-challenge measured after 48 hrs by BrdU incorporation assay; conditions: Homo sapiens
[2] = Inhibition of Cytochrome P450; assay type: ADME
[3] = biological target: Voltage-gated inwardly rectifying potassium channel KCNH2 (Homo sapiens, UniProt Q12809); test: Inhibition of human ERG
Voltage-gated inwardly rectifying potassium channel KCNH2, sequence (Q12809 whole entry): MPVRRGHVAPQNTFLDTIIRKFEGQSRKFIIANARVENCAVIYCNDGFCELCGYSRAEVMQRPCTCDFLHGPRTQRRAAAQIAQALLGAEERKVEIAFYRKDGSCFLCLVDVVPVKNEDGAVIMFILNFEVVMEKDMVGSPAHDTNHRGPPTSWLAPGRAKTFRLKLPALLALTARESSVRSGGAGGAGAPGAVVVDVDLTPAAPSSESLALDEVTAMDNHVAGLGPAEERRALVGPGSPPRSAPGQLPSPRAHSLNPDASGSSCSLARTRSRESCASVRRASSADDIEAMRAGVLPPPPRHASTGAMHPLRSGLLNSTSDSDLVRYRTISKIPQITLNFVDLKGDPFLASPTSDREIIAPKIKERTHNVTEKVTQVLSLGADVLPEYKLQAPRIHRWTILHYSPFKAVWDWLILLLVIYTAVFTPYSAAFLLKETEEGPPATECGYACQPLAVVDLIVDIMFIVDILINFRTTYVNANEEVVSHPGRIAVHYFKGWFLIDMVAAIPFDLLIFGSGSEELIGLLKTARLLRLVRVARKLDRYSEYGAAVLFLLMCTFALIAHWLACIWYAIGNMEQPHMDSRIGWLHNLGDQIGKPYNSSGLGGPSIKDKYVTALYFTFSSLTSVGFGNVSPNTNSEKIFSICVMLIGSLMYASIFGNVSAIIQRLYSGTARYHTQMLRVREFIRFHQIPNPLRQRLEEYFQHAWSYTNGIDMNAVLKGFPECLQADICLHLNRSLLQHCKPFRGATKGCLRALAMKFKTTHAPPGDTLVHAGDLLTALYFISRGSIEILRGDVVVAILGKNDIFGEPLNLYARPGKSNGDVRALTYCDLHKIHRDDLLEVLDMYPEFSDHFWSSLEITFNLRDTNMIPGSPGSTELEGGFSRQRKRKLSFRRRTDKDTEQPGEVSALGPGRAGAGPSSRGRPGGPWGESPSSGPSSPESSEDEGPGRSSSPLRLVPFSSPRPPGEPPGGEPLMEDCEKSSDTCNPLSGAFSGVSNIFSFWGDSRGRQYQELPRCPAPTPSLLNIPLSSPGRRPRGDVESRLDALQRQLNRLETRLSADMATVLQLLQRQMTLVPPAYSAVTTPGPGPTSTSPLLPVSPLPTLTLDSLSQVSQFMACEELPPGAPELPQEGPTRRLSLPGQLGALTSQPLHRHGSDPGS

Compound | pIC50 [1] | inhibition (INH) [2] | inhibition (INH) [3]
C[C@@H](OC(=O)Nc1c(-c2ccc(-c3ccc(C4(C(=O)O)CC4)cc3)cc2)cnn1C)c1ccccc1F | 8.35 | Not Active | Not Active
C[C@@H](OC(=O)Nc1c(-c2ccc(CC(=O)O)cc2)cnn1C)c1ccccc1 |  | Not Active | Not Active
C[C@H](OC(=O)Nc1c(-c2ccccc2F)cnn1C)c1ccccc1Cl |  | Not Active | Not Active
C[C@H](OC(=O)Nc1c(-c2ccc(-c3ccc(C4(C(=O)O)CC4)cc3)cc2)nnn1C)c1cccc(C(F)(F)F)c1 |  | Not Active | Not Active
C[C@@H](OC(=O)Nc1c(-c2ccc(C3CCC(CC(=O)O)CC3)cc2)nnn1C)c1ccccc1 (mixture of isomers) | 8.15 | Not Active | Not Active
CC(OC(=O)Nc1c(-c2ccc(-c3ccc(C4(C(=O)O)CC4)cc3)cc2)cnn1C)c1ccc(F)cc1 (racemic) | 8.30 | Not Active | Not Active
C[C@@H](OC(=O)Nc1c(-c2ccc(-c3ccccc3)cc2)cnn1C)c1ccccc1 |  | Not Active | Not Active
COc1ccc(-c2cnn(C)c2NC(=O)O[C@H](C)c2ccccc2)cc1 |  | Not Active | Not Active
C[C@@H](OC(=O)Nc1c(-c2ccc(-c3ccc(CC(=O)O)cc3)cc2)cnn1C)c1ccccc1 | 7.33 | Not Active | Not Active
C[C@@H](OC(=O)Nc1c(-c2ccc(-c3ccc(C4(C(=O)O)CC4)cc3)cc2)nnn1C)c1ccccc1 | 8.52 | Not Active | Not Active
C[C@@H](OC(=O)Nc1c(-c2ccc(-c3ccc(C4(C(=O)NS(C)(=O)=O)CC4)cc3)cc2)nnn1C)c1ccccc1 | 8.40 | Not Active | Not Active
C[C@@H](OC(=O)Nc1c(-c2ccc(-c3ccc(C4(C(=O)O)CC4)cc3)cc2F)nnn1C)c1ccccc1 | 8.70 | Not Active | Not Active
C[C@@H](OC(=O)Nc1c(-c2ccc(-c3ccc(CC(=O)O)cc3)cc2)nnn1C)c1ccccc1 | 7.22 | Not Active | Not Active
Cc1nnn(-c2ccc(-c3ccc(C4(C(=O)O)CC4)cc3)cc2)c1NC(=O)O[C@H](C)c1cccc(C(F)(F)F)c1 | 5.92 | Not Active | Not Active
